Reference: PubChem BioAssay (NCI)
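Tested at 5 concentrations; 48 h exposure; 96-well plates; endpoints linearly interpolated, else capped at highest concentration. Here, GI50 denotes the concentration required for 50% inhibition of growth. Definition used: TGI = concentration required for complete inhibition of growth.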

Assays:
Assay in all cases: growth of human tumour cells (NCI), 48 h
HOP-62 NSCLC = test system: HOP-62 NSCLC
SK-MEL-2 melanoma = test system: SK-MEL-2 melanoma
EKVX NSCLC = test system: EKVX NSCLC
MALME-3M melanoma = test system: MALME-3M melanoma
SR leukemia = test system: SR leukemia
TK-10 renal = test system: TK-10 renal
MDA-MB-435 = test system: MDA-MB-435
UO-31 renal = test system: UO-31 renal
HCT-116 colon = test system: HCT-116 colon
MDA-N = test system: MDA-N

Row | Compound | TGI (HOP-62 NSCLC) [µM] | TGI (SK-MEL-2 melanoma) [µM] | TGI (EKVX NSCLC) [µM] | TGI (MALME-3M melanoma) [µM] | TGI (SR leukemia) [µM] | TGI (TK-10 renal) [µM] | TGI (MDA-MB-435) [µM] | TGI (UO-31 renal) [µM] | TGI (HCT-116 colon) [µM] | GI50 (HOP-62 NSCLC) [µM] | GI50 (EKVX NSCLC) [µM] | GI50 (MALME-3M melanoma) [µM] | GI50 (SR leukemia) [µM] | GI50 (UO-31 renal) [µM] | GI50 (HCT-116 colon) [µM] | GI50 (MDA-MB-435) [µM] | GI50 (MDA-N) [µM] | GI50 (TK-10 renal) [µM] | TGI (MDA-N) [µM] | GI50 (SK-MEL-2 melanoma) [µM]
1 | N=c1c2c(=S)n(-c3ccccc3)c(=S)n(-c3ccccc3)c2nc(SCCCN2CCN(c3cccc(Cl)c3)CC2)n1-c1ccccc1 | > 100 | > 100 | > 100 | > 100 | > 100 | > 100 | > 100 | – | – | – | – | – | – | – | – | – | – | – | – | –
2 | COC(=O)c1cccc(N[C@@H]2c3cc4c(cc3C(c3cc(OC)c(O)c(OC)c3)[C@H]3C(=O)OCC32)OCO4)c1 (stereo partly drawn) | 0.937 | > 63 | > 26.6 | 27.8 | – | – | – | 11.7 | 21.9 | – | – | – | – | – | – | – | – | – | – | –
3 | C=C1C(=O)OC2/C=C(/C)C3CC(O)C(C)(CC(OC(=O)/C(C)=C/C)C12)O3 (stereo not drawn) | 46.7 | 7.34 | 14.5 | 4.48 | > 24 | 20.1 | – | 18.3 | 3.08 | – | – | – | – | – | – | – | – | – | – | –
4 | O=C(O)CS | – | > 100 | > 100 | > 100 | > 100 | > 100 | – | > 100 | > 100 | – | – | – | – | – | – | – | – | – | – | –
5 | Nc1nc(Cl)cc(OCC2(CO)CC(OCc3ccccc3)C2)n1 (stereo not drawn) | – | – | – | – | – | – | – | – | – | 95.7 | 44.6 | 84.5 | 40.6 | 40.1 | 64 | 69.4 | 64.4 | – | – | –
6 | COc1cc(/C=C/c2cc(/C=C/c3ccc(O)c(OC)c3)nc(N)n2)ccc1O | – | – | 6.83 | 6.76 | 3.58 | 9.54 | – | 7.58 | 2.39 | – | 2.22 | 2.71 | 0.72 | 2.09 | 1.1 | – | – | 3.39 | – | –
7 | CC(=O)Oc1ccc2c(c1)oc1c3ccc(OC(C)=O)cc3n(C)c(=O)c21 | > 100 | – | 70.8 | 31.1 | > 100 | > 100 | > 100 | > 100 | 48.7 | – | – | – | – | – | – | – | – | – | > 100 | –
8 | C=C1C(=O)C[C@@]23CCC[C@@]12CC(OCOC)C3 (stereo partly drawn) | 25.9 | 11.2 | 16.7 | 8.38 | – | – | – | 13.3 | 6 | – | – | – | – | – | – | – | – | – | – | –
9 | S=P1(N2CCCCC2)Oc2ccc3ccccc3c2-c2c(ccc3ccccc23)O1 | > 100 | > 100 | > 100 | > 59.6 | – | – | – | > 100 | > 100 | – | – | – | – | – | – | – | – | – | – | –
10 | Cc1cc(C)c2c(c1)CC1(Cc3c(C)ccc(C)c3C1=O)C2=O (stereo not drawn) | – | > 100 | > 100 | > 100 | > 100 | > 100 | > 100 | – | – | – | – | – | – | – | – | – | – | – | > 100 | –
11 | N=C(N)c1ccc(-c2ccc(-c3ccccc3)s2)cc1 | – | 4.1 | 11.4 | 2.83 | 4.13 | – | 3.03 | 2.81 | – | – | 2.65 | 1.45 | 0.668 | 1.48 | – | 1.66 | – | – | – | 1.97
12 | O=[N+]([O-])c1ccccc1NC1c2ccccc2Oc2ccccc21 | > 100 | > 100 | > 100 | > 100 | > 100 | > 100 | 6.64 | > 100 | > 100 | 8.07 | 17.2 | 7.13 | 3.32 | 7.46 | 4.08 | 2.5 | – | 29.1 | – | 8.43
13 | O=C1C=CC2=[N+]([O-])C(c3ccccc3)(c3ccccc3)C(=Nc3ccccc3)C2=C1 | 29.3 | 40.7 | 14.1 | 4.2 | 0.763 | 3.27 | – | 5.33 | 3.92 | – | – | – | – | – | – | – | – | – | – | –
14 | CCCCCCCC/C=C\CCCCCCCC(=O)O | > 500 | > 281 | 164 | > 500 | – | – | – | 241 | 217 | – | – | – | – | – | – | – | – | – | – | –
15 | CN(C)Cc1cc(C(C)(C)C)ccc1-c1ccc(C(C)(C)C)cc1CN(C)C | > 100 | > 100 | > 100 | > 100 | > 100 | > 100 | > 100 | > 100 | > 100 | – | – | – | – | – | – | – | – | – | > 100 | –
16 | CCN(CC)CCCNc1ncc(C)c2[nH]c3ccncc3c12 | 79.5 | 23.6 | 63.3 | 27.4 | – | – | – | > 100 | 30.3 | – | – | – | – | – | – | – | – | – | – | –
17 | CN1CCCCC(C#N)(c2ccccc2)CC1 (stereo not drawn) | > 100 | – | > 100 | > 100 | > 100 | > 100 | – | > 100 | > 100 | – | – | – | – | – | – | – | – | – | > 100 | –
18 | COC(C(=O)C(O)C(C)O)C1CC2C=C3C=C(OC4CC(OC5CC(O)C(OC)C(C)O5)C(OC(C)=O)C(C)O4)C(C)C(=O)C3=C(O)C2=C(O)C1OC1CC(OC2CC(OC3CC(C)(O)C(OC(=O)C(C)C)C(C)O3)C(O)C(C)O2)C(O)C(C)O1 (stereo not drawn) | < 0.01 | < 0.01 | < 0.01 | < 0.01 | < 0.01 | > 100 | < 0.01 | – | > 100 | – | – | – | – | – | – | – | – | – | < 0.01 | –
